Values joined by “and” are separate entries in the source; they are usually repeats but may differ in a detail not shown here. Identical values can stand only once. “Also recorded” adds a separate entry of the source. Like-named read-outs stand apart in the source and are kept apart here. Each block holds one compound with its values, some of them ahead of it.
How the values were obtained:
[1] = tested on: tracheal organ cultures obtained from vitamin A deficient hamsters; assay: tissue or blood; type: cell-based, hamster; conditions: for EC50: Mesocricetus auratus, dose for reversal of keratinization in epithelium of 50% of retinoid-deficient hamster tracheas in organ culture, trans-retinoic acid run with each compound, read-out: ED50 (the source's name); for activity relative to all trans-retinoic acid: log units less than the standard; for activity (in words): reversal of keratinization
Text: An evaluation of the anticancer properties of the heteroarotinoids was made via the standard hamster tracheal organ culture bioassay (see D. L. Newton, W. R. Henderson, and M. B. Sporn in Structure-Activity Relationships of Retinoids, National Cancer Institute, Revised Edition, Feb. 26, 1980; and D. L. Newton, W. R. Henderson, and M. B. Sporn, Cancer Research, 40, 3413 [1980]). The assay involves the ability of a test compound in vitro to reverse keratinization in tracheal organ cultures obtained from vitamin A deficient hamsters. The relationship of vitamin A deficient epithelial tissues and precancerous lesions is well known (see C. E. Orfanos, Retinoids-Advances in Basic Research and Therapy, Springer-Verlag, New York, 1981). For example, the addition of retinoids can reverse the anaplastic epithelial lesions induced in prostate glands by chemical carcinogens (see D. P. Chopra and L. J. Wilkoff, Proc. Am Assoc. Cancer Research, 16, 35 (1975); and I. Lasnitzki, British Journal of Cancer, 9, 434 [1955]). The basic procedure for the bioassay involving the vitamin A deficient hamster tracheal organ culture is presented below with the results obtained for some of the compositions.
The harvested tracheas were cultured in a serum-free medium and were gassed with 50% O2, 45% N2, and 5% CO2. The serum-free culture consists of CMRL Medium 1066 with crystalline bovine insulin (1.0 μg/mL), hydrocortisone hemisuccinate (0.1 μg/mL), glutamine (2 mM), pencillin (100 inits/mL), and streptomycin (100 μg/mL). The cultures were incubated for 3 days at 35°-36° C. After incubation in the retinoid-free medium, some of the tracheas were harvested. Most of the specimens had significant squamous metaplasia. The remaining cultures were divided into 3 groups. The first group was treated with the experimental heteroarotinoid in spectrograde dimethyl sulfoxide (DMSO) at concentrations of 10^-8 M, 10^-9 M, and 10^-10 M (final concentration of DMSO in culture medium was 0.1%). […] A final culture was prepared with only DMSO present.
The culture medium was changed three times per week for 10 days. At the end of that time, all tracheas were harvested and fixed in a 4% (or sometimes 10%) formaldehyde-1% glutaraldehyde solution. The material was then embedded in paraffin and cross-sections of the tracheas were examined under a microscope for the presence of keratin or keratohyaline granules. A synthetic retinoid was judged as having good anticancer activity if neither keratin nor keratohyaline granules were present or if only keratohyaline granules were […]. […] Sloughing of the cells in the culture studies was common with the toxic all trans-retinotic acid but was not observed with the heteroarotinoids in this work.
^a ED50 (M) is the dose for reversal of keratinization in
epithelium of 50% of retinoiddeficient hamster tracheas in organ culture.

[2] = tested on: ornithine decarboxylase (ODC); assay: suppression of TPA induced ornithine decarboxylase (ODC) in mouse skin; type: in vivo; conditions: for activity in inhibiting ODC induction by TPA (in words): mouse, in vivo
Procedure: In the ODC assay, either 13-cis-retinoic acid or trans-retinoic acid was employed. The following Table summarizes the result of the ODC assays.
In the screening tests of the Table, the selected retinoids in 0.2 ml of acetone were applied 1 hour before the application of 10 nmole of TPA to the shaved backs of mice; the mice where then sacrificed for ODC assay 5 hours after TPA treatment. Epidermus was separated, homogenized, and centrifuged at 30,000×g. Soluble epidermal ODC activity was assayed. The retinoids were evaluated in three independent experiments (3 groups of mice with 3 mice per group) and the results from the experiments were normalized (% inhibition) for comparison. […] Which standard is used appears to be relatively unimportant for determining activity in the assay, but the data presented in the Table identifies the standard for sake of clarity and accuracy of presentation. Thus, the presence of the heteroatom in these arotinoids has not eliminated biological activity. […] Consequently, the nature of the terminus group is also important.

[3] = tested on: HL-60 cells; assay: induction of differentiation of HL-60 cells (NBT reduction); type: cell-based, human; conditions: for cells induced to differentiate: 3 μM; for EC50: Homo sapiens
Procedure: In order to evaluate the efficacy of the heteroarotinoids to induce HL-60 cell differentiation along the granulocytic maturation pathway, HL-60 cells were grown in a serum-free medium consisting of HRPMI 1640 supplemented with […] 4-(2-hydroxyethyl)-1-piperazineethane sulfonic acid, 5 μg of insulin/mL, and 5 μg of transferrin/mL. These mature cells, unlike the uninduced HL-60, produced superoxide anion when simulated with an appropriate agent, such as TPA. The ability of the individual cells to produce superoxide can be measured by incubating cells with the water-soluble yellow dye, nitroblue tetrazolium (NBT). NBT is reduced to a water-insoluble blue-black formazan by superoxide. This formazan precipitate is associated with those cells that produce superoxide. Thus, the percentage of cells in a population that produce superoxide (NBT-positive cells) can be enumerated under a light microscope.
After incubation for 4 days at 37° C. in a humidified atmosphere of 5% CO2 and air, the capacity of the cells to reduce NBT was determined. Viable cells (10^6) were harvested by centrifugation and suspended in 0.5 mL of RPMI 1640 containing 20% fetal bovine serum. This cell suspension was mixed with an equal volume of phosphate buffered saline containing 1 mg of NBT/mL and […]. The reaction mixture was incubated at 37° C. for 25 minutes, and the reaction was terminated by cooling in an ice water bath. Cytospin slides were prepared from a portion of this reaction mixture and stained with Wright-Giemsa. A minimum of 200 cells were counted under light microscopy to determine the percentage of cells with cell-associated formazan.

[4] = tested on: tracheal organ cultures obtained from vitamin A deficient hamsters; conditions: value stated for the standard in the method; read-out: ED50 (the source's name); cited from earlier work
[5] = single large doses; cited from earlier work
[6] = 34 nmol retinoid + TPA, second experiment (standard 13-cis-retinoic acid)
[7] = 13-cis-retinoic acid as the standard
[8] = HL-60, 96 h, 4 days at 37° C., read-out: ED50 (half-maximal response)
[9] = 34 nmol retinoid + TPA, third experiment (standard trans-retinoic acid)
[10] = trans-retinoic acid as a standard
[11] = 17 nmol retinoid + TPA, first experiment
[12] = 17 nmol retinoid + TPA, second experiment

SMILES: C/C(=C\c1ccc(C#N)cc1)c1ccc2c(c1)C(C)(C)CCO2 [compound 34]
ODC Activity [2, 6]: 1.77 ± 0.32 nmol CO2 /60 min/mg protein
relative activities in suppressing TPA induction of ODC [2, 7]: 13-cis-retinoic acid 31>34

SMILES: COC(=O)c1ccc(/C=C(/C)c2ccc3c(c2)C(C)(C)CO3)cc1 [compound 25]
cells induced to differentiate [3]: 3 to 5%

SMILES: C/C(=C\c1ccc(C(=O)O)cc1)c1ccc2c(c1)C(C)(C)CO2 [compound 26, (E)-4-[2-(2,3-Dihydro-3,3-dimethyl-5-benzofuranyl)-1-propenyl]benzoic acid]
EC50 [3, 8]: > 3000 nM

SMILES: C/C(=C\c1ccc(C=O)cc1)c1ccc2c(c1)C(C)(C)CCO2 [compound 36]
% of Inhibition as Compared to Control [2, 9]: 34%
ODC Activity [2, 9]: 3.5 ± 0.2 nmol CO2 /60 min/mg protein
activity in inhibiting ODC induction by TPA (in words) [2]: less active
relative activities in suppressing TPA induction of ODC [2, 10]: trans-retinoic acid >24>35>36

SMILES: CC1=C(/C=C/C(C)=C/C=C/C(C)=C/C(=O)O)C(C)(C)CCC1 [trans-retinoic acid, all trans-retinoic acid, reference compound]
EC50 [4]: 0.01 nM
Sloughing of the cells in the culture studies [1]: common
% Active ([1]; 10^-11 M): 50.0% and 41.7% and 53.8%
% Active ([1]; 10^-12 M): 16.7% and 33.3% and 23.1%
% Active ([1]; concentration printed 11^-11 M): 50.0%
% Active ([1]; concentration printed 12^-12 M): 23.1%
acute toxicity [5]: acutely toxic in single large doses
% of Inhibition as Compared to Control [2, 9]: 81%
ODC Activity [2, 9]: 1.0 ± 0.1 nmol CO2 /60 min/mg protein
relative activities in suppressing TPA induction of ODC [2, 10]: trans-retinoic acid >24>35>36

SMILES: CC1=C(/C=C/C(C)=C/C=C/C(C)=C\C(=O)O)C(C)(C)CCC1 [13-cis-retinoic acid, reference compound]
% of Inhibition as Compared to Control [2, 11]: 89%
ODC Activity [2, 11]: 0.1 ± 0.01 nmol CO2 /30 min/mg protein
% of Inhibition as Compared to Control [2, 12]: 92%
ODC Activity [2, 12]: 0.14 ± 0.04 nmol CO2 /60 min/mg protein
relative activities in suppressing TPA induction of ODC [2, 7]: 13-cis-retinoic acid 31>34

Continued, in another order:

EC50 [1]: 0.06 nM
SMILES: CCOC(=O)c1ccc(/C=C(\C)c2ccc3c(c2)C(C)(C)CCS3)cc1 [1 (X = S, R = C2 H5), Ethyl (E)-4-[2-(3,4-dihydro-4,4-dimethyl-2H-1-benzothiopyran-6-yl)-1-propenyl]benzoate]
% Active ([1]; 10^-9 M): 100%
% Active ([1]; 10^-10 M): 53.8%
% Active ([1]; 10^-11 M): 28.6%
% Active ([1]; 10^-12 M): 33.7%
activity relative to all trans-retinoic acid [1]: approximately one-half log unit less than the all trans-retinoic acid
activity (in words) [1]: very good activity

EC50 [1]: 0.1 nM
SMILES: CCOC(=O)c1ccc(/C=C(\C)c2ccc3c(c2)C(C)(C)CCO3)cc1 [(X = O, R = C2 H5), Ethyl (E)-4-[2-(3,4-Dihydro-4,4-dimethyl-2H-1-benzopyran-6-yl)-1-propenyl]benzoate]
% Active ([1]; 10^-9 M): 100%
% Active ([1]; 10^-10 M): 50.0%
% Active ([1]; 10^-11 M): 28.2%
activity relative to all trans-retinoic acid [1]: only one log unit less than the standard all trans-retinoic acid
activity (in words) [1]: good activity

EC50 [3, 8]: > 3000 nM
relative activities in suppressing TPA induction of ODC [2, 10]: trans-retinoic acid >24>35>36
SMILES: COC(=O)c1ccc(/C=C(\C)c2ccc3c(c2)C(C)(C)CO3)cc1 [compound 24, Methyl (E)-4-[2-(2,3-Dihydro-3,3-dimethyl-5-benzofuranyl)-1-propenyl]benzoate]
cells induced to differentiate [3]: 3 to 5%
% of Inhibition as Compared to Control [2, 9]: 72%
ODC Activity [2, 9]: 1.5 ± 0.4 nmol CO2 /60 min/mg protein
activity in inhibiting ODC induction by TPA (in words) [2]: strongest activity; also recorded: strong activity as compared to the control

EC50 [3, 8]: > 3000 nM
relative activities in suppressing TPA induction of ODC [2, 7]: 13-cis-retinoic acid 31>34
activity in inhibiting ODC induction by TPA (in words) [2]: less active
SMILES: COC(=O)c1ccc(/C=C(\C)c2ccc3c(c2)C(C)(C)CCO3)cc1 [compound 31, Methyl (E)-4-[2-(3,4-Dihydro-4,4-dimethyl-2-H-1-benzopyran-6-yl)-1-propenyl]benzoate]
cells induced to differentiate [3]: approximately 15%
% of Inhibition as Compared to Control [2, 6]: 43%
ODC Activity [2, 6]: 0.95 ± 0.06 nmol CO2 /60 min/mg protein

EC50 [3, 8]: > 3000 nM
activity in inhibiting ODC induction by TPA (in words) [2]: less active
relative activities in suppressing TPA induction of ODC [2, 10]: trans-retinoic acid >24>35>36
SMILES: C/C(=C\c1ccc(CO)cc1)c1ccc2c(c1)C(C)(C)CCO2 [compound 35, (E)-4-[2-Methyl-2-(4,4-dimethyl-6-chromanyl)]benzyl Alcohol]
% of Inhibition as Compared to Control [2, 9]: 68%
ODC Activity [2, 9]: 1.7 ± 0.1 nmol CO2 /60 min/mg protein

EC50 [1]: 0.6 nM
SMILES: CCOC(=O)c1ccc(/C=C(\C)c2ccc3c(c2)C(C)(C)CC[S+]3[O-])cc1 (centres unmarked) [(X = S)--O, R = C2 H5), Ethyl (E)-4-[2-(3,4-Dihydro-4,4-dimethyl-2H-1-benzothiopyran-1-oxo-6-yl)-1-propenyl]benzoate]
% Active ([1]; 10^-8 M): 71.4%
% Active ([1]; 10^-9 M): 71.4%
% Active ([1]; 10^-10 M): 18.6%
activity (in words) [1]: less active but nevertheless displayed activity within the range of the standard

EC50 [1]: 0.2 nM
SMILES: C/C(=C\c1ccc(C(=O)O)cc1)c1ccc2c(c1)C(C)(C)CCO2 [(X = O, R = H), (E)-4-[2-(3,4-Dihydro-4,4-dimethyl-2H-1-benzopyran-6-yl)-1-propenyl]benzoic Acid]
% Active ([1]; 10^-8 M): 100%
% Active ([1]; 10^-9 M): 100%
% Active ([1]; 10^-10 M): 57.1%
% Active ([1]; 10^-11 M): 11.14%
activity relative to all trans-retinoic acid [1]: only one log unit less than the standard all trans-retinoic acid
activity (in words) [1]: good activity

EC50 [3, 8]: > 3000 nM
EC50 ([3]; HL-60, restated in discussion, read-out: ED50 (the source's name)): < 3000 nM
SMILES: C/C(=C\c1ccc(C(=O)O)cc1)c1ccc2c(c1)C(C)(C)CCO2 [acid derived from 34]
cells induced to differentiate [3]: approximately 15%

From US4826984A, “Heteroarotinoid compounds as anticancer agents” (The Board of Regents for the Oklahoma Agricultural and …, priority 1987, dated 1989)
